Laboratory results reported in patent US20160270428A1 (priority 2015, published 2016).

Test system: Bacillus amyloliquefaciens LN
Type: cell-based

Compound | Zone diameter of LN [mm] | sensitivity of LN strain to the antibiotic according to CLSI
NCC[C@H](O)C(=O)N[C@@H]1C[C@H](N)[C@@H](O[C@H]2O[C@H](CN)[C@@H](O)[C@H](O)[C@H]2O)[C@H](O)[C@H]1O[C@H]1O[C@H](CO)[C@@H](O)[C@H](N)[C@H]1O [Amikacin] | 23.0 ± 0.8 | –
CC1(C)S[C@@H]2[C@H](NC(=O)[C@H](N)c3ccccc3)C(=O)N2[C@H]1C(=O)O [Ampicillin] | 16.2 ± 1.0 | no antibiotics sensitivity and resistance
Cn1nnnc1SCC1=C(C(=O)O)N2C(=O)[C@@H](NC(=O)[C@H](O)c3ccccc3)[C@H]2SC1 [Cefamandol] | 38.2 ± 7.1 | –
CO[C@@]1(NC(=O)Cc2cccs2)C(=O)N2C(C(=O)O)=C(COC(N)=O)CS[C@@H]21 [Cefoxitin] | 27.6 ± 1.5 | –
CC(=O)OCC1=C(C(=O)O)N2C(=O)[C@@H](NC(=O)Cc3cccs3)[C@H]2SC1 [Cephalothin] | 36.8 ± 1.7 | –
O=C(N[C@H](CO)[C@H](O)c1ccc([N+](=O)[O-])cc1)C(Cl)Cl [Chloramphenicol] | 30.7 ± 5.9 | –
CC[C@H]1OC(=O)[C@H](C)[C@@H](O[C@H]2C[C@@](C)(OC)[C@@H](O)[C@H](C)O2)[C@H](C)[C@@H](O[C@@H]2O[C@H](C)C[C@H](N(C)C)[C@H]2O)[C@](C)(O)C[C@@H](C)C(=O)[C@H](C)[C@@H](O)[C@]1(C)O [Erythromycin] | 24.5 ± 1.5 | –
C[C@@H](O)[C@H]1C(=O)N2C(C(=O)O)=C(SCCN=CN)C[C@H]12 [Imipeneem] | 29.5 ± 0.2 | –
NC[C@H]1O[C@H](O[C@H]2[C@H](O)[C@@H](O[C@H]3O[C@H](CO)[C@@H](O)[C@H](N)[C@H]3O)[C@H](N)C[C@@H]2N)[C@H](O)[C@@H](O)[C@@H]1O [Kanamycin] | 34.0 ± 0.4 | –
O=C1CN(/N=C/c2ccc([N+](=O)[O-])o2)C(=O)N1 [Nitrofurantoin] | 17.3 ± 0.6 | –
CCn1cc(C(=O)O)c(=O)c2cc(F)c(N3CCNCC3)cc21 [Norfloxacin] | 24.7 ± 0.8 | –
Cc1onc(-c2ccccc2)c1C(=O)N[C@@H]1C(=O)N2[C@@H]1SC(C)(C)[C@@H]2C(=O)O [Oxacillin] | 14.3 ± 0.6 | –
[H]/N=C(/N)N[C@H]1[C@H](O)[C@@H](O)[C@H](O[C@@H]2O[C@@H](C)[C@](O)(C=O)[C@H]2O[C@@H]2O[C@@H](CO)[C@H](O)[C@@H](O)[C@@H]2NC)[C@@H](N/C(N)=N\[H])[C@@H]1O [Streptomycin] | 14.3 ± 0.5 | no antibiotics sensitivity and resistance
CN(C)[C@@H]1C(O)=C(C(N)=O)C(=O)[C@@]2(O)C(O)=C3C(=O)c4c(O)cccc4[C@@](C)(O)[C@H]3C[C@@H]12 [Tetracycline] | 15.3 ± 1.1 | –
NC[C@H]1O[C@H](O[C@H]2[C@H](O)[C@@H](O[C@H]3O[C@H](CO)[C@@H](O)[C@H](N)[C@H]3O)[C@H](N)C[C@@H]2N)[C@H](N)C[C@@H]1O [Tobramycin] | 22.4 ± 1.8 | –
CN[C@H](CC(C)C)C(=O)N[C@H]1C(=O)N[C@@H](CC(N)=O)C(=O)N[C@H]2C(=O)N[C@H]3C(=O)N[C@H](C(=O)N[C@H](C(=O)O)c4cc(O)cc(O)c4-c4cc3ccc4O)[C@H](O)c3ccc(c(Cl)c3)Oc3cc2cc(c3O[C@@H]2O[C@H](CO)[C@@H](O)[C@H](O)[C@H]2O[C@H]2C[C@](C)(N)[C@H](O)[C@H](C)O2)Oc2ccc(cc2Cl)[C@H]1O [Vancomycin] | 19.0 ± 0.8 | –
Cefoxime | 28.7 ± 7.0 | –
Gentamicin | 35.0 ± 9.6 | –
Neomycin | 20.9 ± 2.3 | –
